# Columns and labels:
# bedstraw = test: Test B pre/postemergence bedstraw; assay type: in vivo, Galium aparine
# In short: (§1)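 Test chemicals in a non-phytotoxic solvent mixture with surfactant were sprayed preemergence onto planted seeds and postemergence onto plants 2 to 18 cm tall (1- to 4-leaf stage). After twelve to sixteen days in a greenhouse, injury was visually rated against untreated controls from 0 (no effect) to 10 (complete control).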
# blackgrass = test: Test B pre/postemergence blackgrass; assay type: in vivo, Alopecurus myosuroides
# In short: as §1
# surinam grass = test: Test B pre/postemergence surinam grass; assay type: in vivo, Brachiaria decumbens
# In short: as §1
# cocklebur = test: Test B pre/postemergence cocklebur; assay type: in vivo, Xanthium strumarium
# In short: as §1
# corn = test: Test B pre/postemergence corn; assay type: in vivo, Zea mays
# In short: as §1
# crabgrass = test: Test B pre/postemergence crabgrass; assay type: in vivo, Digitaria sanguinalis
# In short: as §1
# giant foxtail = test: Test B pre/postemergence giant foxtail; assay type: in vivo, Setaria faberii
# In short: as §1
# morningglory = test: Test B pre/postemergence morningglory; assay type: in vivo, Ipomoea hederacea
# In short: as §1
# pigweed = test: Test B pre/postemergence pigweed; assay type: in vivo, Amaranthus retroflexus
# In short: as §1
# rape = test: Test B pre/postemergence rape; assay type: in vivo, Brassica napus
# In short: as §1
# soybean = test: Test B pre/postemergence soybean; assay type: in vivo, Glycine max
# In short: as §1
# sugar beet = test: Test B pre/postemergence sugar beet; assay type: in vivo, Beta vulgaris
# In short: as §1
# velvetleaf = test: Test B pre/postemergence velvetleaf; assay type: in vivo, Abutilon theophrasti
# In short: as §1
# wheat = test: Test B pre/postemergence wheat; assay type: in vivo, Triticum aestivum
# In short: as §1
# wild oat = test: Test B pre/postemergence wild oat; assay type: in vivo, Avena fatua
# In short: as §1
# purple nutsedge = test: Test B pre/postemergence purple nutsedge; assay type: in vivo, Cyperus rotundus
# In short: as §1
# [1] = Postemergence, Rate 500 g/ha, scale 0 to 10, 0 is no effect, 10 is complete control
# [2] = Preemergence, Rate 62 g/ha, scale of 0 to 10 where 0 is no effect and 10 is complete control
# [3] = Preemergence, Rate 125 g/ha, scale 0 to 10, 0 is no effect, 10 is complete control
# [4] = Preemergence, Rate 250 g/ha, scale 0 to 10, 0 is no effect, 10 is complete control
# [5] = Preemergence, Rate 500 g/ha, scale 0 to 10, 0 is no effect, 10 is complete control
# [6] = Postemergence, Rate 62 g/ha, scale of 0 to 10, 0 is no effect, 10 is complete control
# [7] = Postemergence, Rate 125 g/ha, scale 0 to 10, 0 is no effect, 10 is complete control
# [8] = Postemergence, Rate 250 g/ha, scale 0 to 10
# [9] = Preemergence, Rate 500 g/ha, scale of 0 to 10 where 0 is no effect and 10 is complete control
# [10] = Postemergence, Rate 250 g/ha, scale 0 to 10, 0 no effect, 10 complete control
structure (smiles),measurement,setting,value
CC(=O)OCCCCn1c(=O)on(C(=O)N(c2ccc(F)cc2F)C(C)C)c1=O [Compound 506],"Plant response rating, Bedstraw",bedstraw; [1],9
same,"Plant response rating, Bedstraw",bedstraw; [2],0
same,Bedstraw plant response rating,bedstraw; [3],0
same,Bedstraw plant response rating,bedstraw; [4],0
same,Bedstraw plant response rating,bedstraw; [5],4
same,Blackgrass plant response rating,blackgrass; [6],0
same,Blackgrass plant response rating,blackgrass; [7],0
same,Blackgrass plant response rating,blackgrass; [8],5
same,"Plant response rating, Blackgrass",blackgrass; [1],6
same,"Plant response rating, Blackgrass",blackgrass; [2],0
same,Blackgrass plant response rating,blackgrass; [3],0
same,Blackgrass plant response rating,blackgrass; [4],4
same,Blackgrass plant response rating,blackgrass; [9],9
same,B. signalgrass plant response rating,surinam grass; [6],0
same,B. signalgrass plant response rating,surinam grass; [7],0
same,B. signalgrass plant response rating,surinam grass; [10],0
same,"Plant response rating, B. signalgrass",surinam grass; [1],0
same,"Plant response rating, B. signalgrass",surinam grass; [2],0
same,B. signalgrass plant response rating,surinam grass; [3],0
same,B. signalgrass plant response rating,surinam grass; [4],0
same,B. signalgrass plant response rating,surinam grass; [5],0
same,Cocklebur plant response rating,cocklebur; [6],0
same,Cocklebur plant response rating,cocklebur; [7],0
same,Cocklebur plant response rating,cocklebur; [8],2
same,"Plant response rating, Cocklebur",cocklebur; [1],6
same,"Plant response rating, Cocklebur",cocklebur; [2],0
same,Cocklebur plant response rating,cocklebur; [3],0
same,Cocklebur plant response rating,cocklebur; [4],0
same,Cocklebur plant response rating,cocklebur; [9],0
same,Corn plant response rating,corn; [6],0
same,Corn plant response rating,corn; [7],0
same,Corn plant response rating,corn; [8],0
same,"Plant response rating, Corn",corn; [1],0
same,"Plant response rating, Corn",corn; [2],0
same,Corn plant response rating,corn; [3],0
same,Corn plant response rating,corn; [9],0
same,Crabgrass plant response rating,crabgrass; [6],0
same,Crabgrass plant response rating,crabgrass; [7],3
same,Crabgrass plant response rating,crabgrass; [8],7
same,"Plant response rating, Crabgrass",crabgrass; [1],8
same,"Plant response rating, Crabgrass",crabgrass; [2],0
same,Crabgrass plant response rating,crabgrass; [3],0
same,Crabgrass plant response rating,crabgrass; [9],6
same,Giant foxtail plant response rating,giant foxtail; [6],2
same,"Plant response rating, Giant foxtail",giant foxtail; [1],8
same,"Plant response rating, Giant foxtail",giant foxtail; [2],0
same,Giant foxtail plant response rating,giant foxtail; [3],5
same,Giant foxtail plant response rating,giant foxtail; [9],8
same,Morningglory plant response rating,morningglory; [6],0
same,Morningglory plant response rating,morningglory; [7],0
same,"Plant response rating, Morningglory",morningglory; [1],5
same,"Plant response rating, Morningglory",morningglory; [2],0
same,Morningglory plant response rating,morningglory; [3],0
same,Morningglory plant response rating,morningglory; [9],0
same,Redroot pigweed plant response rating,pigweed; [6],0
same,Redroot pigweed plant response rating,pigweed; [7],0
same,"Plant response rating, Redroot pigweed",pigweed; [1],0
same,"Plant response rating, Redroot pigweed",pigweed; [2],2
same,Redroot pigweed plant response rating,pigweed; [3],8
same,Redroot pigweed plant response rating,pigweed; [9],10
same,Rape plant response rating,rape; [6],0
same,Rape plant response rating,rape; [7],0
same,"Plant response rating, Rape",rape; [1],7
same,"Plant response rating, Rape",rape; [2],0
same,Rape plant response rating,rape; [3],0
same,Rape plant response rating,rape; [9],8
same,Soybean plant response rating,soybean; [6],2
same,Soybean plant response rating,soybean; [7],2
same,"Plant response rating, Soybean",soybean; [1],4
same,"Plant response rating, Soybean",soybean; [2],0
same,Soybean plant response rating,soybean; [3],0
same,Soybean plant response rating,soybean; [9],0
same,Sugarbeets plant response rating,sugar beet; [6],2
same,Sugarbeets plant response rating,sugar beet; [7],6
same,"Plant response rating, Sugarbeets",sugar beet; [1],7
same,"Plant response rating, Sugarbeets",sugar beet; [2],0
same,Sugarbeets plant response rating,sugar beet; [3],0
same,Sugarbeets plant response rating,sugar beet; [9],0
same,Velvetleaf plant response rating,velvetleaf; [6],0
same,Velvetleaf plant response rating,velvetleaf; [7],0
same,"Plant response rating, Velvetleaf",velvetleaf; [1],4
same,"Plant response rating, Velvetleaf",velvetleaf; [2],0
same,Velvetleaf plant response rating,velvetleaf; [3],0
same,Velvetleaf plant response rating,velvetleaf; [9],0
same,Wheat plant response rating,wheat; [6],0
same,Wheat plant response rating,wheat; [7],0
same,"Plant response rating, Wheat",wheat; [1],4
same,"Plant response rating, Wheat",wheat; [2],0
same,Wheat plant response rating,wheat; [3],0
same,Wheat plant response rating,wheat; [9],2
same,Wild oats plant response rating,wild oat; [6],0
same,Wild oats plant response rating,wild oat; [7],0
same,"Plant response rating, Wild oats",wild oat; [1],2
same,"Plant response rating, Wild oats",wild oat; [2],0
same,Wild oats plant response rating,wild oat; [3],2
same,Wild oats plant response rating,wild oat; [9],7
same,Nutsedge plant response rating,purple nutsedge; [6],0
same,Nutsedge plant response rating,purple nutsedge; [7],0
same,"Plant response rating, Nutsedge",purple nutsedge; [1],0
same,"Plant response rating, Nutsedge",purple nutsedge; [2],0
same,Nutsedge plant response rating,purple nutsedge; [3],0
same,Nutsedge plant response rating,purple nutsedge; [9],10
CCN(CC)C(=O)Cn1c(=O)on(C(=O)N(c2ccc(F)cc2F)C(C)C)c1=O [Compound 512],Bedstraw plant response rating,bedstraw; [8],7
same,"Plant response rating, Bedstraw",bedstraw; [2],0
same,Bedstraw plant response rating,bedstraw; [3],0
same,Bedstraw plant response rating,bedstraw; [4],0
same,Bedstraw plant response rating,bedstraw; [5],3
same,Blackgrass plant response rating,blackgrass; [6],2
same,Blackgrass plant response rating,blackgrass; [7],3
same,Blackgrass plant response rating,blackgrass; [8],6
same,"Plant response rating, Blackgrass",blackgrass; [1],6
same,"Plant response rating, Blackgrass",blackgrass; [2],0
same,Blackgrass plant response rating,blackgrass; [3],2
same,Blackgrass plant response rating,blackgrass; [4],9
same,Blackgrass plant response rating,blackgrass; [9],10
same,B. signalgrass plant response rating,surinam grass; [6],0
same,B. signalgrass plant response rating,surinam grass; [7],1
same,B. signalgrass plant response rating,surinam grass; [10],4
same,"Plant response rating, B. signalgrass",surinam grass; [1],5
same,"Plant response rating, B. signalgrass",surinam grass; [2],3
same,B. signalgrass plant response rating,surinam grass; [3],8
same,B. signalgrass plant response rating,surinam grass; [4],10
same,B. signalgrass plant response rating,surinam grass; [5],10
same,Cocklebur plant response rating,cocklebur; [6],0
same,Cocklebur plant response rating,cocklebur; [7],2
same,Cocklebur plant response rating,cocklebur; [8],3
same,"Plant response rating, Cocklebur",cocklebur; [1],7
same,"Plant response rating, Cocklebur",cocklebur; [2],0
same,Cocklebur plant response rating,cocklebur; [3],0
same,Cocklebur plant response rating,cocklebur; [4],0
same,Cocklebur plant response rating,cocklebur; [9],0
same,Corn plant response rating,corn; [6],0
same,Corn plant response rating,corn; [7],0
same,Corn plant response rating,corn; [8],0
same,"Plant response rating, Corn",corn; [1],0
same,"Plant response rating, Corn",corn; [2],0
same,Corn plant response rating,corn; [3],0
same,Corn plant response rating,corn; [9],3
same,Crabgrass plant response rating,crabgrass; [6],2
same,Crabgrass plant response rating,crabgrass; [7],2
same,Crabgrass plant response rating,crabgrass; [8],5
same,"Plant response rating, Crabgrass",crabgrass; [1],9
same,"Plant response rating, Crabgrass",crabgrass; [2],3
same,Crabgrass plant response rating,crabgrass; [3],7
same,Crabgrass plant response rating,crabgrass; [9],9
same,Giant foxtail plant response rating,giant foxtail; [6],2
same,Giant foxtail plant response rating,giant foxtail; [7],3
same,"Plant response rating, Giant foxtail",giant foxtail; [1],8
same,"Plant response rating, Giant foxtail",giant foxtail; [2],5
same,Giant foxtail plant response rating,giant foxtail; [3],9
same,Giant foxtail plant response rating,giant foxtail; [9],10
same,Morningglory plant response rating,morningglory; [6],5
same,Morningglory plant response rating,morningglory; [7],5
same,"Plant response rating, Morningglory",morningglory; [1],7
same,"Plant response rating, Morningglory",morningglory; [2],0
same,Morningglory plant response rating,morningglory; [3],0
same,Morningglory plant response rating,morningglory; [9],0
same,Redroot pigweed plant response rating,pigweed; [6],1
same,Redroot pigweed plant response rating,pigweed; [7],7
same,"Plant response rating, Redroot pigweed",pigweed; [1],9
same,"Plant response rating, Redroot pigweed",pigweed; [2],3
same,Redroot pigweed plant response rating,pigweed; [3],9
same,Redroot pigweed plant response rating,pigweed; [9],10
same,Rape plant response rating,rape; [6],0
same,Rape plant response rating,rape; [7],0
same,"Plant response rating, Rape",rape; [1],0
same,"Plant response rating, Rape",rape; [2],0
same,Rape plant response rating,rape; [3],0
same,Rape plant response rating,rape; [9],5
same,Soybean plant response rating,soybean; [6],4
same,Soybean plant response rating,soybean; [7],4
same,"Plant response rating, Soybean",soybean; [1],7
same,"Plant response rating, Soybean",soybean; [2],0
same,Soybean plant response rating,soybean; [3],0
same,Soybean plant response rating,soybean; [9],0
same,Sugarbeets plant response rating,sugar beet; [6],0
same,Sugarbeets plant response rating,sugar beet; [7],0
same,"Plant response rating, Sugarbeets",sugar beet; [1],7
same,"Plant response rating, Sugarbeets",sugar beet; [2],0
same,Sugarbeets plant response rating,sugar beet; [3],0
same,Sugarbeets plant response rating,sugar beet; [9],5
same,Velvetleaf plant response rating,velvetleaf; [6],0
same,Velvetleaf plant response rating,velvetleaf; [7],0
same,"Plant response rating, Velvetleaf",velvetleaf; [1],1
same,"Plant response rating, Velvetleaf",velvetleaf; [2],0
same,Velvetleaf plant response rating,velvetleaf; [3],0
same,Velvetleaf plant response rating,velvetleaf; [9],0
same,Wheat plant response rating,wheat; [6],0
same,Wheat plant response rating,wheat; [7],0
same,"Plant response rating, Wheat",wheat; [1],2
same,"Plant response rating, Wheat",wheat; [2],0
same,Wheat plant response rating,wheat; [3],2
same,Wheat plant response rating,wheat; [9],6
same,Wild oats plant response rating,wild oat; [6],0
same,Wild oats plant response rating,wild oat; [7],0
same,"Plant response rating, Wild oats",wild oat; [1],1
same,"Plant response rating, Wild oats",wild oat; [2],2
same,Wild oats plant response rating,wild oat; [3],2
same,Wild oats plant response rating,wild oat; [9],10
same,Nutsedge plant response rating,purple nutsedge; [6],0
same,"Plant response rating, Nutsedge",purple nutsedge; [2],0
